This is an account of results in US8545820B2, “Use of titanium-based materials as bactericides” (Savannah River Nuclear Solutions, LLC, priority 2010, dated 2013).

The test system of data set [1] is Prevotella intermedia (Pi). The data set can be described thus: Planktonic bacterial growth suppression (OD at 595 nm, 24 h exposure). It is filed as cell-based. Particulars: concentrations ≦1500 μM. The procedure: (§1) Set forth in Table 1 are the species of oral bacteria which were evaluated. These species are atiologic agents and periodontal disease, gingivitis, or caries that would lend themselves to treatment with a solid-phase metal titanate compound. […] All bacteria were cultured from frozen stocks expanded from ATCC cultures; the absence of contamination was verified at each thaw via Gram stain. All bacteria were grown over 24 h to mid-log phase before inoculating experimental cultures.
(§2) One hundred μL of the initial culture was plated in 96 well plate format number of bacterial cells present in a given volume of culture was determined by correlating OD reading of bacterial culture at 595 nm to the number of cells present. […] Prior to exposing bacteria to metal-titanate compounds, appropriate dilutions of each bacterial species were made so that metal-titanate compounds are consistently exposed to 3.56E9 bacteria for all species tested. This strategy assured the same cell to titanate particle ratio, allowed repeatability, and allowed log growth phase throughout the 24 h time when bacteria were exposed to the titanates. A 24 h incubation time with titanates was chosen to maximize the exposure to the titanates without risking a culture deteriorating from overgrowth.
(§3) For metal ions alone, 5 μL of a concentrated stock solution of the respective metal salt were added to 95 μL of the bacterial cultures (n=8 per condition). […] The cultures were mixed to ensure contact between the titanates and the bacteria. MST and APT suspensions were thoroughly mixed prior to addition to ensure accurate transfer of the particles. […] Titanate-bacterial cultures were incubated for 24 h under the conditions appropriate for each type of bacterium. After 24 h, the cultures were thoroughly mixed prior to reading the OD. Control cultures for experiments included cultures of media alone (no titanates or bacteria), titanates in media (no bacteria), and bacteria alone (no titanates). […] All experiments were repeated in triplicate to assure reproducibility.
(§4) The initial and final mean and standard deviation OD readings were plotted as a function of concentration. The titanate only controls were also plotted as a baseline. Cultures were statistically compared (two-sided Student's t-tests, α=0.05) to determine significant effects of the titanates (with or without added metal) on bacterial growth.
(§5) A similar strategy was used to assess the antibacterial action of the metal ions alone, so that the relative efficacy of the titanates alone and titanate metal complexes could be compared to the metal ions alone. The delivery potential of metal ion from the titanate-metal complexes was determined by calculating the total metal mass complexed with the titanates at each titanate particle concentration.

The test system of data set [2] is Actinomyces naeslundii (An). Described as above. It is filed as cell-based. The protocol: as §1, §2, §3, §4, §5
The subject of data set [3] is bacteria in Table 1. As to the kind of experiment: Planktonic bacterial growth suppression, statements pooled over the species tested. The format is cell-based, oral bacteria. The procedure: as §1
One hundred μL of the initial culture was plated in 96 well plate format number of bacterial cells present in a given volume of culture was determined by correlating OD reading of bacterial culture at 595 nm to the number of cells present. […] Prior to exposing bacteria to metal-titanate compounds, appropriate dilutions of each bacterial species were made so that metal-titanate compounds are consistently exposed to 3.56E9 bacteria for all species tested. […]
For metal ions alone, 5 μL of a concentrated stock solution of the respective metal salt were added to 95 μL of the bacterial cultures (n=8 per condition). […] After 24 h, the cultures were thoroughly mixed prior to reading the OD. […]
The initial and final mean and standard deviation OD readings were plotted as a function of concentration. […]

Data set [4] deals with mammalian cells. The note with it: metal ion alone; based on previous reports; cited from earlier work.
Data set [5] in a line: Aqueous solubility of the metal chloride salt. The format is physicochemical.

Take `O.O.O.[Cl][Au-]([Cl])([Cl])[Cl].[H+]` [Au(III), HAuCl4•3H2O]: the “Effect of metal ion alone on Pi” value in data set [1] is “no observable effect”. Also, in data set [2] (>10 μM), the “An growth suppression by metal ion alone” value is on record as “completely suppressed”. Also, the “Relative potency among the metal ions alone” value in data set [3] (metal ions alone, excepting Pt(II)) was “most potent”. Moreover, the “Inhibitory concentration for mammalian cells” value (“Inhibitory concentration” below) in data set [4] was 60 to 115 µM.
As for `[Cl][Pd][Cl]` [Pd(II), PdCl2], in data set [2] (>1000 μM), the “An growth suppression by metal ion alone” value is given as “approximately 30%”. The “Inhibitory concentration” value in data set [4] is 100 to 300 µM.
Consider `[Cl][Pt][Cl]` [Pt(II), PtCl2], for which the “Aqueous solubility of the chloride salt” value in data set [5] was “limited aqueous solubility”.
`[Cl][Pt][Cl]` [Pt(IV), PtCl2]: the “An growth suppression by metal ion alone” value in data set [2] (concentrations ≦750 μM) is listed as “not suppressed”. For the same compound, the “Inhibitory concentration” value in data set [4] is 25 µM.
Regarding `CC[C@H]1OC(=O)[C@H](C)[C@@H](O[C@H]2C[C@@](C)(OC)[C@@H](O)[C@H](C)O2)[C@H](C)[C@@H](O[C@@H]2O[C@H](C)C[C@H](N(C)C)[C@H]2O)[C@](C)(O)C[C@@H](C)C(=O)[C@H](C)[C@@H](O)[C@]1(C)O` [erythromycin], the “Bacteriostatic control (Bac-Em)” value in data set [3] (bacteria with erythromycin 100 μg/mL, no titanates) is recorded as “behaved as expected”.
